In patent US20210395327A1, “Growth Hormone-Releasing Hormone Antagonists and Uses Thereof” (United States Government As Represented By The Department …, priority 2019, published 2021):
Where two headings read alike, the source gives them in different places. Non-standard residues stand in square brackets, D forms with d. Residues, ends and D or L forms follow the SMILES beside them. *: point of attachment. Phenylacetyl(2,3,4,5,6-F5) = O=C(Cc1c(F)c(F)c(F)c(F)c1F)*; Phe(4-Cl) = N[C@@H](Cc1ccc(Cl)cc1)C(=O)O; hArg = N=C(N)NCCCC[C@H](N)C(=O)O; 12Ado = NCCCCCCCCCCCC(=O)O; Nle = CCCC[C@H](N)C(=O)O; Orn = NCCC[C@H](N)C(=O)O; Abu = CC[C@H](N)C(=O)O; PhAc = O=C(Cc1ccccc1)*; Aoc = NCCCCCCCC(=O)O

Experiments:
HCC827 lung cancer cells = test: In vitro cell viability, HCC827; format: cell-based, human; settings: antagonist 5 μM for 72 h, cell proliferation assay; MIA602 = 1
Method: (§1) The inhibitory effects of the various synthesized GHRH antagonists were tested in cell proliferation assays in various human cancer cell lines including stomach cancer (KATOIII, N87), colon cancer (HT-29), urothelial cancer (J82, RT4), pancreatic cancer (PANC-1, CFPAC-1), prostatic cancer (PC3), breast cancer (MX-1, HCC1806), ovarian cancer (SK-OV-3, OVCAR-3) and lung cancer (HCC827, H460).
(§2) Cell culture. Human cancer cell lines including pancreatic (PANC-1 and CFPAC-1), lung (HCC827 and H460), stomach (NCI-N87 and KATOIII), urothelial (J82, RT4), prostatic (PC3), breast (MX-1 and HCC 1806), colorectal (HT-29), and ovarian (SK-OV-3 and OVCAR-3) were obtained from the American Type Culture Collection (ATCC) and cultured at 37° C. in a humidified 95% air/5% CO2 atmosphere in the medium recommended by ATCC.
(§3) In vitro cell viability. Cell viability was analyzed as follows: cancer cells including pancreatic (PANC-1 and CFPAC-1), lung (HCC827 and H460), stomach (NCI-N87 and KATOIII), urothelial (J82, RT4), prostatic (PC3) and breast (MX-1 and HCC 1806), colorectal (HT-29) and ovarian (SK-OV-3 and OVCAR-3) were grown on 96 well plates to ˜60% confluence, the cells were starved for 24 h in culture medium containing 0.5% FBS. Cells were then treated with GHRH antagonists MIA602 AVR compounds at concentrations of 1, 2.5 or 5 μM, or vehicle (0.1% DMSO) in quintuplicates for 72 hours. The medium was replaced every 48 hours. Cell viability was measured using CellTiter 96 aqueous one solution kit (Promega). Inhibitory effects of tested AVR compounds in comparison to that of MIA602 are presented as inhibitory potency.
(§4) Inhibitory effects of selected AVR compounds in comparison to that of MIA602 are presented as inhibitory potency (e.g., percentage of inhibition). […] The cell lines tested including lung cancer HCC827 (FIG. 2A), pancreatic cancer CFPAC-1 (FIG. 2B), stomach cancer N87 (FIG. 2C), colon cancer HT-29 (FIG. 2D), breast cancers MX-1 and HCC1806 (FIGS. 2 E, F). Based on the results of cell proliferation assay after cancer cells were treated with antagonist at concentration of 5 μM for 72H, the relative inhibitory potency of AVR antagonists in comparison to MIA-602 is summarized in Table 3 A and B. Over 60 AVR compounds were tested in 12 cancer cell lines.
(§5) Based on the results of cell proliferation assay after cancer cells were treated with antagonist at concentration of 5 µM for 72H, * at concentration of 2 µM for 72 H.

[1] = system: KATOIII stomach cancer cells; test: In vitro cell viability, KATOIII; format: cell-based, human; settings: antagonist 5 μM for 72 h, cell proliferation assay; MIA602 = 1
Method: as §1, §2, §3, §4

[2] = system: CFPAC-1 pancreatic cancer cells; test: In vitro cell viability, CFPAC-1; format: cell-based, human; settings: antagonist 5 μM for 72 h, cell proliferation assay; MIA602 = 1
Method: as §1, §2, §3, §4, §5

[3] = target: T1, membrane GHRH-receptors on human anterior pituitary cells (Homo sapiens, UniProt Q02643); test: Receptor binding, displacement of 125I-[His1,Nle27]-hGH-RH(1-32)NH2 on human pituitary membranes
T1 construct: Human pituitary was purchased from the National Hormone and Peptide Program; tissue National Hormone and Peptide Program; host or cells: human pituitary (membrane fractions)
T1 sequence (Q02643 23-423): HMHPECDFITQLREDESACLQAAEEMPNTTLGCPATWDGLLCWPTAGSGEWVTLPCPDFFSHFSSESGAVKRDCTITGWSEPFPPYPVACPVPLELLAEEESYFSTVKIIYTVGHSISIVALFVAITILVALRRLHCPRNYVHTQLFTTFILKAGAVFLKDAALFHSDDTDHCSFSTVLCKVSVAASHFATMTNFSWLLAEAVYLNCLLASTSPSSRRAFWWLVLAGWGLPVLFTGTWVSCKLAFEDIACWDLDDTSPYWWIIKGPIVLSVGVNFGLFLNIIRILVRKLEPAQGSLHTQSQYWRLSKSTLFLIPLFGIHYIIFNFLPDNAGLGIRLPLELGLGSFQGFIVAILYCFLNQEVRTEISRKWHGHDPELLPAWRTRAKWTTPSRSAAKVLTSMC
Method: Receptor binding affinities in vitro. Preparation of human pituitary membrane fractions and receptor binding of analogs of GH-RH were performed (Halmos G, Rekasi Z, Szoke B, Schally A V. (1993) Receptor 3:87-97). Human pituitary was purchased from the National Hormone and Peptide Program. […] Relative affinities compared to hGH-RH(1-29)NH2 were calculated as the ratio of IC50 (dose causing 50% inhibition of specific binding to receptors) of the tested peptides to the IC50 of hGH-RH(1-29)NH2. The values were calculated from technical duplicate tubes.
Nineteen new AVR analogs of GHRH were tested in the receptor binding assay. Table 6 presents the IC50 values of GHRH antagonists to membrane GHRH-receptors binding on human anterior pituitary cells.

[4] = membrane receptors on human anterior pituitary cells, mean of two to three determinations, read-out: IC50

Row | IC50 [3, 4] | SMILES | relative inhibitory potency in comparison to MIA-602, Lung IICC827 (HCC827 lung cancer cells) | relative inhibitory potency in comparison to MIA-602, Stomach KATOIII [1] | relative inhibitory potency in comparison to MIA-602, Pancreatic CFPAC-1 [2] | IC50 [3]
1 | – | CCCC[C@H](NC(=O)[C@@H](NC(=O)[C@H](CC(=O)O)NC(=O)[C@H](CCC(N)=O)NC(=O)[C@H](CC(C)C)NC(=O)[C@H](CC(C)C)NC(=O)[C@H](CCCCN)NC(=O)[C@H](CCCNC(=N)N)NC(=O)[C@H](C)NC(=O)[C@H](CO)NC(=O)[C@H](CC(C)C)NC(=O)[C@H](CCC(N)=O)NC(=O)[C@H](CC)NC(=O)[C@H](CC(C)C)NC(=O)[C@@H](NC(=O)[C@H](CCCCN)NC(=O)[C@H](CCCNC(=N)N)NC(=O)[C@H](Cc1ccc(OC)cc1)NC(=O)[C@H](CCCNC(=N)N)NC(=O)[C@H](CC(N)=O)NC(=O)[C@@H](NC(=O)[C@H](Cc1ccc(Cl)cc1)NC(=O)[C@@H](NC(=O)[C@H](C)NC(=O)[C@H](CC(=O)O)NC(=O)[C@@H](CCCNC(=N)N)NC(=O)[C@H](Cc1ccc(O)cc1)NC(=O)CCCCCCCCCCCNC(=O)Cc1ccccc1)[C@@H](C)CC)[C@@H](C)O)C(C)C)[C@@H](C)CC)C(=O)N[C@H](CCCNC(=N)N)C(=O)N[C@@H](CCCCNC(=N)N)C(=O)NC [AVR-234, PhAC-Ada-Tyr-DArg-Asp-Ala-Ile-Cpa-Thr-Asn-Arg-Tyr(Me)-Arg-Lys-Val-Leu-Abu-Gln-Leu-Ser-Ala-Arg-Lys-Leu-Leu-Gln-Asp-Ile-Nle-DArg-Har-NHCH3] ({PhAc-12Ado}-Y[dR]DAI[Phe(4-Cl)]TNRY(Me)RKVL[Abu]QLSARKLLQDI[Nle][dR][hArg]-NHMe) | 4.510 | 1.709 | 2.205 | 0.45 nM
2 | 0.25 nM | CCCC[C@H](NC(=O)[C@@H](NC(=O)[C@H](CC(=O)O)NC(=O)[C@H](CCC(N)=O)NC(=O)[C@H](CC(C)C)NC(=O)[C@H](CC(C)C)NC(=O)[C@H](CCCCN)NC(=O)[C@H](CCCNC(=N)N)NC(=O)[C@H](C)NC(=O)[C@H](CO)NC(=O)[C@H](CC(C)C)NC(=O)[C@H](CCC(N)=O)NC(=O)[C@H](CC)NC(=O)[C@H](CC(C)C)NC(=O)[C@@H](NC(=O)[C@H](CCCCN)NC(=O)[C@H](CCCNC(=N)N)NC(=O)[C@H](Cc1ccc(OC)cc1)NC(=O)[C@H](CCCCNC(=N)N)NC(=O)[C@H](CC(N)=O)NC(=O)[C@@H](NC(=O)[C@H](Cc1ccc(Cl)cc1)NC(=O)[C@@H](NC(=O)[C@H](C)NC(=O)[C@H](CC(=O)O)NC(=O)[C@@H](CCCNC(=N)N)NC(=O)[C@H](Cc1ccc(O)cc1)NC(=O)CCCCCCCCCCCNC(=O)Cc1c(F)c(F)c(F)c(F)c1F)[C@@H](C)CC)[C@@H](C)O)C(C)C)[C@@H](C)CC)C(=O)N[C@H](CCCNC(=N)N)C(=O)N[C@@H](CCCCNC(=N)N)C(=O)NCCCCCCCC(=O)NC [AVR-322, 5FPhAC-Ada-Tyr-DArg-Asp-Ala-Ile-Cpa-Thr-Asn-Har-Tyr(Me)-Arg-Lys-Val-Leu-Abu-Gln-Leu-Ser-Ala-Arg-Lys-Leu-Leu-Gln-Asp-Ile-Nle-DArg-Har-Aoc-NHCH3] ({Phenylacetyl(2,3,4,5,6-F5)-12Ado}-Y[dR]DAI[Phe(4-Cl)]TN[hArg]Y(Me)RKVL[Abu]QLSARKLLQDI[Nle][dR][hArg][Aoc]-NHMe) | – | 1.296 | – | –
3 | 0.31 nM | CCCC[C@H](NC(=O)[C@@H](NC(=O)[C@H](CC(=O)O)NC(=O)[C@H](CCC(N)=O)NC(=O)[C@H](CC(C)C)NC(=O)[C@H](CC(C)C)NC(=O)[C@H](CCCN)NC(=O)[C@H](Cc1c[nH]cn1)NC(=O)[C@H](C)NC(=O)[C@H](CO)NC(=O)[C@H](CC(C)C)NC(=O)[C@H](CCC(N)=O)NC(=O)[C@H](CC)NC(=O)[C@H](CC(C)C)NC(=O)[C@@H](NC(=O)[C@H](CCCCN)NC(=O)[C@H](CCCNC(=N)N)NC(=O)[C@H](Cc1ccc(OC)cc1)NC(=O)[C@H](CCCNC(=N)N)NC(=O)[C@H](CC(N)=O)NC(=O)[C@@H](NC(=O)[C@H](Cc1ccc(Cl)cc1)NC(=O)[C@@H](NC(=O)[C@H](C)NC(=O)[C@H](CC(=O)O)NC(=O)[C@@H](CCCNC(=N)N)NC(=O)[C@H](Cc1ccc(O)cc1)NC(=O)CCCCCCCCCCCNC(=O)Cc1c(F)c(F)c(F)c(F)c1F)[C@@H](C)CC)[C@@H](C)O)C(C)C)[C@@H](C)CC)C(=O)N[C@H](CCCNC(=N)N)C(=O)N[C@@H](CCCCNC(=N)N)C(=O)NCCCCCCCCCCCC(N)=O [AVR-620, 5FPhAC-Ada-Tyr-DArg-Asp-Ala-Ile-Cpa-Thr-Asn-Arg-Tyr(Me)-Arg-Lys-Val-Leu-Abu-Gln-Leu-Ser-Ala-His-Orn-Leu-Leu-Gln-Asp-Ile-Nle-DArg-Har-Ada-NH2] ({Phenylacetyl(2,3,4,5,6-F5)-12Ado}-Y[dR]DAI[Phe(4-Cl)]TNRY(Me)RKVL[Abu]QLSAH[Orn]LLQDI[Nle][dR][hArg][12Ado]-NH2) | 3.753 | 1.769 | 1.567 | –

Row | SMILES | IC50 [3, 4] | relative inhibitory potency in comparison to MIA-602, Lung IICC827 (HCC827 lung cancer cells) | relative inhibitory potency in comparison to MIA-602, Stomach KATOIII [1] | relative inhibitory potency in comparison to MIA-602, Pancreatic CFPAC-1 [2] | IC50 [3]
4 | CCCC[C@H](NC(=O)[C@@H](NC(=O)[C@H](CC(=O)O)NC(=O)[C@H](CCC(N)=O)NC(=O)[C@H](CC(C)C)NC(=O)[C@H](CC(C)C)NC(=O)[C@H](CCCCN)NC(=O)[C@H](CCCNC(=N)N)NC(=O)[C@H](C)NC(=O)[C@H](CO)NC(=O)[C@H](CC(C)C)NC(=O)[C@H](CCC(N)=O)NC(=O)[C@H](CC)NC(=O)[C@H](CC(C)C)NC(=O)[C@@H](NC(=O)[C@H](CCCCN)NC(=O)[C@H](CCCNC(=N)N)NC(=O)[C@H](Cc1ccc(OC)cc1)NC(=O)[C@H](CCCCNC(=N)N)NC(=O)[C@H](CC(N)=O)NC(=O)[C@@H](NC(=O)[C@H](Cc1ccc(Cl)cc1)NC(=O)[C@@H](NC(=O)[C@H](C)NC(=O)[C@H](CC(=O)O)NC(=O)[C@@H](CCCNC(=N)N)NC(=O)[C@H](Cc1ccc(O)cc1)NC(=O)CCCCCCCCCCCNC(=O)Cc1ccccc1)[C@@H](C)CC)[C@@H](C)O)C(C)C)[C@@H](C)CC)C(=O)N[C@H](CCCNC(=N)N)C(=O)N[C@@H](CCCCNC(=N)N)C(=O)NCCCCCCCCCCCC(N)=O [AVR-332] ({PhAc-12Ado}-Y[dR]DAI[Phe(4-Cl)]TN[hArg]Y(Me)RKVL[Abu]QLSARKLLQDI[Nle][dR][hArg][12Ado]-NH2) | 0.34 nM | – | 1.643 | – | –
